Values of other authors in patent publication US20160144033A1, “CONCENTRATED ACETAMINOPHEN SOLUTION” (Emphascience, Inc., priority 2014, published 2016).

Conditions: room temperature

solubility of acetaminophen in water: ca. 13 mg per ml
Structure (SMILES): CC(=O)Nc1ccc(O)cc1 [acetaminophen]
